In US20090131493A1, “SUBSTITUTED BENZIMIDAZOLES FOR TREATMENT OF HISTOMONIASIS” (BAYER HEALTHCARE AG, priority 2005, published 2009):

Columns and labels:
[1] = turkey cock; cited from earlier work
Histomonas meleagridis [2] = test: Test 1: cage trial, turkey chicks intracloacally infected with Histomonas meleagridis, weight gain; type: in vivo; conditions: 1 day before to 13 days after infection, uninfected/untreated group 4 set at 100%
Excerpt: (§1) Young, susceptible turkey cock chicks were kept in cages and underwent intracloacal infection in a conventional way at an age of 2 weeks with about 5 log 10 infectious Histomonas meleagridis microorganisms. With the test groups which had been treated with the test compounds, two control groups were kept for comparison purposes (infected/untreated and uninfected/untreated). The test groups consisted of 6 to 10 turkeys. The test compounds, either the compound of the formula (I-1) or (I-2), were administered to the treated test groups 1 day before the infection and 13 days thereafter, with the feed. At the end of the trial, the animals were sacrificed and examined for lesions typical of histomoniasis (“blackhead disease”).

Histomonas meleagridis [3] = test: Test 2: cage trial, turkey chicks intracloacally infected with Histomonas meleagridis, liver and caecum lesions; type: in vivo; conditions: for Caecum lesions / Liver lesions: scale 0 (no lesions) to 4 (most severe lesions)
Excerpt: as §1

histomonas = conditions: cited from earlier work
Heterakis gallinarum = conditions: treatment for 14 days after the time of infection; directed against Heterakis gallinarum, not H. meleagridis; cited from earlier work

SMILES: O=[N+]([O-])c1cc([As](=O)(O)O)ccc1O [roxarsone]
- effect of doubling the dosage [1]: impaired motor functions

SMILES: CCN(Cn1c(C(F)(F)F)nc2c(Br)cc3c(c21)OC(F)(F)C(F)(F)O3)C(=O)OC [compound (I-1)]
- Weight gain (Histomonas meleagridis [2]; 5 ppm in the feed): 61%
- Caecum lesions (Histomonas meleagridis [3]; 5 ppm in the feed): 3.5
- Liver lesions (Histomonas meleagridis [3]; 5 ppm in the feed): 0.8
- Caecum lesions (Histomonas meleagridis [3]; 15 ppm in the feed): 3
- Liver lesions (Histomonas meleagridis [3]; 15 ppm in the feed): 0

SMILES: CCCSc1ccc2nc(NC(=O)OC)[nH]c2c1 [albendazole]
- activity on histomonas in vitro (histomonas): inadequate activity
- activity in vivo (Heterakis gallinarum): prophylactic activity

SMILES: Cc1oc(=O)oc1Cn1c(C(F)(F)F)nc2c(Cl)cc3c(c21)OC(F)(F)C(F)(F)O3 [compound (I-2)]
- Weight gain (Histomonas meleagridis [2]; 10 ppm in the feed): 35%
- Caecum lesions (Histomonas meleagridis [3]; 10 ppm in the feed): 2.1
- Liver lesions (Histomonas meleagridis [3]; 10 ppm in the feed): 0
- Caecum lesions (Histomonas meleagridis [3]; 30 ppm in the feed): 0.8
- Liver lesions (Histomonas meleagridis [3]; 30 ppm in the feed): 0
- effect on caecum lesions (in words) (Histomonas meleagridis [3]; Test 2, summary in text): reduced the caecum lesions

SMILES: COC(=O)Nc1nc2ccc(Sc3ccccc3)cc2[nH]1 [fenbendazole]
- activity on histomonas in vitro (histomonas): inadequate activity
- activity in vivo (Heterakis gallinarum): prophylactic activity
